Consider one molecule from patent US9345677B2, “Compositions, methods and kits relating to HER-2 cleavage” (Incyte Corporation, priority 2003, dated 2016).

For one assay, the system named is Her-2 sheddase. The assay can be described thus: Her-2 ECD ELISA of BT474 culture supernatants (Her-2 sheddase inhibition). In kind it is cell-based, human. The method, then: BT474 cells were seeded in 100 μL of RPMI medium containing 10% FCS+10 μg/ml insulin in 96 well plates at 2×10^4 cells/well. The cells were incubated overnight at 37° C. The following morning, the media was removed and 100 μL of fresh media with or without compound was added back. The cells were incubated for about 72 hours at 37° C. After about 72 hours, the supernatants were removed. The samples were diluted 1:10 and analyzed using a commercially available Her-2 ELISA kit per manufacturer's instructions (Oncogene Research, catalog #QIA 10).
These inhibitors were added, at varying concentrations, to cultures of BT474 cells, a Her-2 overexpressing breast cancer cell line known to enzymatically process cell surface Her-2 (p185) and release the extracellular domain (ECD) into the culture supernatant, i.e., shedding of ECD. After 72 hours, cell culture supernatants were harvested and assayed for Her-2 ECD content using an ELISA assay.

The test system of the next assay is BT474 cells. Briefly: Cell proliferation assay (cell counting, BrdU incorporation). In kind it is cell-based, human. The settings on record: Her-2 overexpressing BT474 cells. Background: Dividing cells build labelled thymidine or BrdU into new DNA.
The test system of a further assay is MCF7 cells. Described as above. In kind it is cell-based, human. The settings on record: MCF7 cells which do not overexpress Her-2.
A further assay concerns the target MMP12 (Homo sapiens, UniProt P39900). Briefly: MMP12 fluorogenic peptide biochemical assay. An excerpt: Source of enzymes for biochemical assays: Except for ADAM17 and MT1-MMP, all recombinant human MMPs and ADAMs were obtained from R&D Systems (Minneapolis, Minn.). […] MT1-MMP was obtained from US Biological (Swampscott, Mass.) with a catalog number of M2429. Porcine ADAM17 was purified in house from porcine spleen.
Substrates for biochemical assays: Fluorogenic Peptide substrate, (7-methoxycoumarin-4-yl)acetyl-Pro-Leu-Gly-Leu-(3-[2,4-dinitrophenyl]-L-2,3-diaminopropionyl)-Ala-Arg-NH2 (SEQ ID NO: 46), was obtained from R&D Systems (Minneapolis, Minn.) with a catalog number of ES001. It was used as substrate for MMP1, MMP2, MMP7, MMP8, MMP9, MMP12, MMP13, and MT1-MMP. Fluorogenic Peptide substrate, (7-methoxycoumarin-4-yl)acetyl-Arg-Pro-Lys-Pro-Val-Glu-Nva-Trp-Arg-Lys(2,4-dinitrophenyl)-NH2 (SEQ ID NO: 47), was obtained from R&D Systems with a catalog number of ES002. It was used as substrate for MMP3 and MMP10. […]
In general, 5 mM compound stock was prepared in DMSO. […] The plate was read on a plate reader with excitation of 320 nm and emission of 405 nm. Percentage of inhibition was calculated for each concentration and IC50 value was generated from curve fitting. […]

Structures are written as SMILES.

MMP12, sequence (P39900 106-470): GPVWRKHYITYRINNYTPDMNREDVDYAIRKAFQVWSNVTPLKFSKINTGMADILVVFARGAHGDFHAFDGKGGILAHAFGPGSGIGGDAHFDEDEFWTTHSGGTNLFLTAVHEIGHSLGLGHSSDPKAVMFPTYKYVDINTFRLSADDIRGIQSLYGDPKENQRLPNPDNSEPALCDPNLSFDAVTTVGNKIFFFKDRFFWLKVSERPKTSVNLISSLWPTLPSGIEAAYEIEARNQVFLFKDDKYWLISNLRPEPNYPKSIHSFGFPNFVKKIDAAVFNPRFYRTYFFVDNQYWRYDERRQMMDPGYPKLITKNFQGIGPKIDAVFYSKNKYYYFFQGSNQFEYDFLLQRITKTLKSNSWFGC
Experimental for BT474 cells: (§1) Proliferation assays were routinely performed with two protocols: cell counting and BrdU incorporation assay. For cell counting, cells (1×10^5) were seeded in each well of 12 well plates and cultured overnight. Then, cells were treated for 6 days with drugs and compounds as indicated in individual experiments. Culture media were replaced with fresh media containing the same concentrations of drugs and compounds after the first 3 days of treatment. Viable cells were counted with hemacytometers immediately after trypan blue staining.
The BrdU incorporation assay was performed using a colorimetric Cell Proliferation ELISA kit per manufacturer's instruction (#1647229, Roche Molecular Biochemicals), measuring DNA synthesis in proliferating cells. Briefly, cells (5−10×10^3) were seeded in each well of 96 well plates and cultured overnight. […] Finally, 100 μl/well of substrate solution was added and the results were obtained using a microplate reader (Spectra Max PLUS, Molecular Devices) during color development. Multiple readings at various time points were obtained and results in the linear range of the assay were obtained. […]
After varying periods of cell culture (2-6 days), the cell cultures were harvested and cell growth was assessed by cell count and BRdU incorporation using standard protocols.
Experimental for MCF7 cells: as §1
The BrdU incorporation assay was performed using a colorimetric Cell Proliferation ELISA kit per manufacturer's instruction (#1647229, Roche Molecular Biochemicals), measuring DNA synthesis in proliferating cells. Briefly, cells (5−10×10^3) were seeded in each well of 96 well plates and cultured overnight. The next day, culture media were replaced with fresh media containing drugs and compounds as indicated for individual experiments. […] Finally, 100 μl/well of substrate solution was added and the results were obtained using a microplate reader (Spectra Max PLUS, Molecular Devices) during color development. Multiple readings at various time points were obtained and results in the linear range of the assay were obtained. […]

Broadly, the IC50 is the midpoint of a concentration-inhibition curve. Read a low IC50 as higher potency. Regarding `CN1CC2(CC2)C[C@H](C(=O)NO)[C@H]1C(=O)N1CCN(c2ccc(C(F)(F)F)cn2)CC1` [Compound 6], the Her-2 sheddase activity entry in the assay with Her-2 sheddase was “inactive”. Besides, the “effect on antiproliferative activity of a suboptimal dose of Herceptin” value in the assay on BT474 cells and in the assay on MCF7 cells was “does not enhance” in each case. Besides, the midpoint of inhibition at MMP12, the IC50, lay at 1.95 nM.
